Source: patent US4791114A, “2-Benzimidazolylalkylthio (or -sulfinyl or -sulfonyl) derivatives, their preparation and their application as medicinal products” (501 Laboratorios Del, Dr. Esteve, priority 1986, dated 1988)

Columns and labels:
[1] = Acute toxicity in mice (oral LD50, Litchfield and Wilcoxon); conditions: mouse, in vivo, suspended in 5% gum arabic
Method: Method of Litchfield and wilcoxon [Litchfield, J. T. and Wilcoxon, E. J., H. Pharmacol. Exp. Therap., 96, 19-113 (1949)].
The product is administered orally, suspended in 5% gum arabic in double-distilled water. The volume administered is 10 ml/kg. The fifty percent lethal dose (LD50) is calculated according to the method cited.

[2] = test system: gastric acid secretion; assay: Inhibition of gastric acid secretion in Shay rats (pylorus ligation); type: in vivo, male Wistar rats; conditions: Rattus norvegicus, 2 h, intraduodenal, two hours after pylorus ligation; for inhibition in vivo at 40 mg/kg: i.d., read-out: Percentage inhibition of gastric acid secretion
Text: Method of Shay [Shay, H.; Komarov, S. A.; Feis, S. S.; Merange, D.; Grvenstein, M.; Siplet, H.; Gastroenterology, 5, 43 (1945)--Visscher, F. E.; Seay, P. H.; Taxelaar, A. P.; Veldkamp, W.; Vander Brook, M. J.; J. Pharmac. Exp. Ther., 110, 188 (1954)--"Animal Experiments in Pharmacological Analysis", F. R. Domer; C. C. Thomas Pub., Springfield, Ill., USA, 1970, p. 140].
In this test, male Wistar rats weighing 200 to 250 grams are used, the animals being maintained fasted from the day preceding that of the trail, with access to water ad libitum. A minimum of 4 animals is used in each batch.
The rats are anesthetized with ethyl ether, laporotomy is performed and the pylorus is ligated, and the abdominal incision is then sutured. The administration of the products, with the vehicle for the control batch, is performed intraduodenally (i.d.) before the abdominal incision is sutured. The dose administered for the first trail is 40 mg/kg, and the fifty percent effectove dose (ED50) i.d. is also determined in a second trial. The vehicle used is 5% w/v gum arabic in double-distilled water.
Two hours after ligation of the pyrolus, the rats are sacrificed by prolonged anesthesia with ethyl ether, and the volume of the gastric juice is measured and the total acidity determined by means of a pH meter equipped with an automatic burette. For each product and for each dose tested, the percentage inhibition of gastric acid secretion is determined relative to the control batch.

| SMILES | LD50 ([1]; female mice) | LD50 ([1]; male mice) | ED50 [2] | inhibition in vivo at 40 mg/kg [2] |
| --- | --- | --- | --- | --- |
| c1cnc(SCc2nc3ccccc3[nH]2)nc1 [Example 1, 2-(2-benzimidazolylmethylthio)pyrimidine] | 2700 mg/kg | 3200 mg/kg | 13 mg/kg | 98% |
| Cc1cc(C)nc(SCc2nc3ccccc3[nH]2)n1 [Example 3] | > 3200 mg/kg | > 3200 mg/kg | 16 mg/kg | 88% |
| O=[N+]([O-])c1ccc(SCc2nc3ccccc3[nH]2)nc1 [Example 4] |  |  | 21 mg/kg | 74% |
| Cc1cc2nc(CSc3ccccn3)[nH]c2cc1C [Example 6, 5,6-dimethyl-2-(2-pyridylthiomethyl)benzimidazole] |  |  | 19 mg/kg | 92% |
| [O-][n+]1ccccc1SCc1nc2ccccc2[nH]1 [Example 7] |  |  | 19 mg/kg | 95% |
| O=C(c1ccccc1)c1ccc2nc(CSc3ccccn3)[nH]c2c1 [Example 10, 5-benzoyl-2-(2-pyridylthiomethyl)benzimidazole] |  |  | 14 mg/kg | 93% |
| O=C(c1ccccc1)c1ccc2nc(C[S+]([O-])c3ccccn3)[nH]c2c1 (centres unmarked) [Example 27, 5-benzoyl-2-(2-pyridylsulfinylmethyl)benzimidazole] | 3200 mg/kg | 3200 mg/kg | 7 mg/kg | 95% |
| [O-][S+](Cc1nc2ccccc2[nH]1)c1ccccn1 (centres unmarked) [Example 28, 2-(2-pyridylsulfinylmethyl)benzimidazole] | 3200 mg/kg | 3200 mg/kg | 8 mg/kg | 90% |
| O=[N+]([O-])c1ccc([S+]([O-])Cc2nc3ccccc3[nH]2)nc1 (centres unmarked) [Example 29] | 2400 mg/kg | 2400 mg/kg | 4 mg/kg | 90% |
| Cc1cc2nc(C[S+]([O-])c3ccccn3)[nH]c2cc1C (centres unmarked) [Example 31] | > 6400 mg/kg | > 6400 mg/kg | 15 mg/kg | 96% |
| [O-][S+](Cc1nc2cc(Cl)ccc2[nH]1)c1ccccn1 (centres unmarked) [Example 32] |  |  | 17 mg/kg | 92% |
| Cc1cnc([S+]([O-])Cc2nc3cc(C(=O)c4ccccc4)ccc3[nH]2)c(C)c1 (centres unmarked) [Example 41] |  |  | 10 mg/kg | 80% |
| Cc1ccnc([S+]([O-])Cc2nc3cc(C(=O)c4ccccc4)ccc3[nH]2)c1 (centres unmarked) [Example 44] |  |  | 10 mg/kg | 66% |
| O=S(=O)(Cc1nc2ccc(Cl)cc2[nH]1)c1ccccn1 [Example 54, 5-chloro-2-(2-pyridylsulfonylmethyl)benzimidazole] |  |  | 24 mg/kg | 70% |
| Cn1c(C[S+]([O-])c2ccccn2)nc2cc(C(=O)c3ccccc3)ccc21 (centres unmarked) [Example 60, 5-benzoyl-1-methyl-2-(2-pyridylsulfinylmethyl)benzimidazole] |  |  | 21 mg/kg | 75% |
| CCOC(=O)n1c(C[S+]([O-])c2ccccn2)nc2ccc(C(=O)c3ccccc3)cc21 (centres unmarked) [Example 63, 6-benzoyl-1-carboxyethyl-2-(2-pyridylsulfinylmethyl)benzimidazole] |  |  | 16 mg/kg | 81% |
